For 1 molecule, Infarct volume results are on record in patent US9687490B2, “Triazine derivatives for the treatment of conditions associated with nicotinamide adenine dinucleotide phosphate oxidase” (GLUCOX BIOTECH AB, priority 2012, dated 2017).

This assay deals with stroke induced mice. The assay can be described thus: Stroke animal model: transient middle cerebral artery occlusion (tMCAO), infarct size by TTC staining. The following applies: individual animals, 3.2 mg/kg i.p. at 2 h and 12 h, 1 h occlusion, 23 h reperfusion, C57Bl6 mice. The format is in vivo. Here is the method:
Mice (10-12 wk), wild type C57BI6, 6 animals, were used:
Test (n=3) stroke induced mouse treated i.p. with inventive compound M4 (N^2-(3,4-dimethylphenyl)-6-((4-(3-methoxyphenyl)piperazin-1-yl)methyl)-1,3,5-triazine-2,4-diamine).
M4 preparation for intra peritoneal i.p. administration: 3.5 mg of M4 were first dissolved in 1 ml of DMSO. After the substance was totally dissolved, 5 ml of 20% Cremophor ELP in PBS (phosphate buffered saline solution) was added. Thereafter an additional 4 ml of PBS was added. The 20% Cremophor ELP solution was prepared by dissolving 10.5 g of Cremophor in 50 ml of PBS.
Injection volume of M4: The dose was 3.2 mg/kg, calculated for each animal at each event of administration (2 h and 12 h).
• 1. Transient middle cerebral artery occlusion (tMCAO) by blocking with a filament for 1 h. • 2. Reperfusion after 1 h by removing filament • 3. Injection of M4 by i.p. after 2 h and repeated injection i.p. after 12 h • 4. Sacrifice the animal after 24 h and infarct size is determined by triphenyl tetrazolium chloride (TTC) staining—Thus the procedure of middle cerebral artery occlusion (MCAO); 1 h occlusion and 23 h reperfusion. • 5. […]
Mice were killed 24 hours after tMCAO. […] The occurrence of Intra Cerebral Hemorrhage (ICH) was macroscopically assessed on whole brains and again after the 2-mm-thick coronal brain slices were cut (see above) before TTC staining. […]

“And” between values parts separate entries of the source, which are not always exact repeats. Equal values may be shown once.

`COc1cccc(N2CCN(Cc3nc(N)nc(Nc4ccc(C)c(C)c4)n3)CC2)c1` [M4, N^2-(3,4-dimethylphenyl)-6-((4-(3-methoxyphenyl)piperazin-1-yl)methyl)-1,3,5-triazine-2,4-diamine]: the Infarct volume is 73 mm^3 and 145 mm^3 and 134 mm^3.
